In patent US20240199587A1, “HETEROCYCLIC COMPOUNDS” (Hoffmann-La Roche Inc., priority 2021, published 2024):

target: T1, MAGL (Homo sapiens, UniProt Q99685); test: 2-AG assay (MAGL inhibitory activity, hydrolysis of 2-arachidonoylglycerol to arachidonic acid followed by mass spectrometry); format: biochemical; conditions: 8 μM 2-arachidonoylglycerol, 15 min pre-incubation, 30 min incubation at RT, RapidFire MS readout
T1 sequence (Q99685 1-303): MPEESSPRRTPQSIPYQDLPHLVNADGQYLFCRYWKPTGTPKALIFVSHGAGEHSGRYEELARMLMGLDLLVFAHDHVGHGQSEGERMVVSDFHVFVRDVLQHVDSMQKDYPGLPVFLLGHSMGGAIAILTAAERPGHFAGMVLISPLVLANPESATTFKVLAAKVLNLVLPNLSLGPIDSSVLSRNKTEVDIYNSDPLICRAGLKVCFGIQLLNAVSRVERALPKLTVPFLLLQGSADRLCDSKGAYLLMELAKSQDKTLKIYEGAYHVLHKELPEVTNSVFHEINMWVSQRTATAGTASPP
Outline: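 Arachidonic acid released from 8 μM 2-arachidonoylglycerol was quantified by online SPE triple-quadrupole MS (negative ESI, 303.1→259.1), normalised to d8-arachidonic acid internal standard. Reaction ran 30 min at RT after 15 min RT compound pre-incubation with […] MAGL in TRIS/EDTA/Tween-20 buffer, 2.5% DMSO.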

| Compound | IC50 |
| --- | --- |
| O=C(N1CC2(CC(Oc3ccc(F)c(F)c3)C2)C1)N1CC2(CC(n3cnc(C4CC4)n3)C2)C1 [Example 68, [6-(3-cyclopropyl-1,2,4-triazol-1-yl)-2-azaspiro[3.3]heptan-2-yl]-[6-(3,4-difluorophenoxy)-2-azaspiro[3.3]heptan-2-yl]methanone] | 0.9 nM |
| O=C(N1CC2(CC(n3cnc(C4CC4)n3)C2)C1)N1CC2(CN(Cc3cnc(C(F)(F)F)cn3)C2)C1 [Example 473, [6-(3-cyclopropyl-1,2,4-triazol-1-yl)-2-azaspiro[3.3]heptan-2-yl]-[6-[[5-(trifluoromethyl)pyrazin-2-yl]methyl]-2,6-diazaspiro[3.3]heptan-2-yl]methanone] | 11.4 nM |
| NS(=O)(=O)c1ccc(F)c(CC2CCN(C(=O)N3CC4(CC(n5cnc(C6CC6)n5)C4)C3)CC2)c1 [Example 319] | 301 nM |
| N#Cc1ccccc1S(=O)(=O)N1CC2(CN(C(=O)N3CC4(CC(n5cnc(C6CC6)n5)C4)C3)C2)C1 [Example 240] | 6.8 nM |
| O=C(N1CC(c2cnc(N3CC(C(F)(F)F)C3)nc2)C1)N1CC2(CC(n3cnc(C4CC4)n3)C2)C1 [Example 479, [6-(3-cyclopropyl-1,2,4-triazol-1-yl)-2-azaspiro[3.3]heptan-2-yl]-[3-[2-[3-(trifluoromethyl)azetidin-1-yl]pyrimidin-5-yl]azetidin-1-yl]methanone] | 7.5 nM |
| CC(C)(C)c1nnc(-c2ccc(C(=O)N3CC4(CC(n5ccc(C6CC6)n5)C4)C3)cc2)o1 [Example 169, [4-(5-tert-butyl-1,3,4-oxadiazol-2-yl)phenyl]-[6-(3-cyclopropylpyrazol-1-yl)-2-azaspiro[3.3]heptan-2-yl]methanone] | 659 nM |
| O=C(N1CC(c2ccc(N3CC[C@H](C(F)(F)F)C3)nc2)C1)N1CC2(CC(n3cnc(C4CC4)n3)C2)C1 [Example 476, [6-(3-cyclopropyl-1,2,4-triazol-1-yl)-2-azaspiro[3.3]heptan-2-yl]-[3-[6-[(3S)-3-(trifluoromethyl)pyrrolidin-1-yl]-3-pyridyl]azetidin-1-yl]methanone] | 0.56 nM |
| N#Cc1ccc(OC2CC3(C2)CN(C(=O)N2CC4(CC(n5cnc(C6CC6)n5)C4)C2)C3)c(F)c1 [Example 111, 4-[[2-[6-(3-cyclopropyl-1,2,4-triazol-1-yl)-2-azaspiro[3.3]heptane-2-carbonyl]-2-azaspiro[3.3]heptan-6-yl]oxy]-3-fluoro-benzonitrile] | 4.3 nM |
| O=C(N1CC(C23CC(CNC4(C(F)(F)F)CC4)(C2)C3)C1)N1CC2(CC(n3cnc(C(F)(F)F)n3)C2)C1 [Example 420, [3-[3-[[[1-(trifluoromethyl)cyclopropyl]amino]methyl]-1-bicyclo[1.1.1]pentanyl]azetidin-1-yl]-[6-[3-(trifluoromethyl)-1,2,4-triazol-1-yl]-2-azaspiro[3.3]heptan-2-yl]methanone] | 0.74 nM |
| O=C(N1CC2(CC(Oc3ccc(Cl)nc3)C2)C1)N1CC2(CC(n3cnc(C4CC4)n3)C2)C1 [Example 83, (6-((6-chloropyridin-3-yl)oxy)-2-azaspiro[3.3]heptan-2-yl)(6-(3-cyclopropyl-1H-1,2,4-triazol-1-yl)-2-azaspiro[3.3]heptan-2-yl)methanone] | 5.2 nM |
| CC(C)(C)Cn1nncc1-c1ccc(C2CN(C(=O)N3CC4(C3)CN(c3cncc(F)c3)C4)C2)cc1 [Example 349, [3-[4-[3-(2,2-dimethylpropyl)triazol-4-yl]phenyl]azetidin-1-yl]-[6-(5-fluoro-3-pyridyl)-2,6-diazaspiro[3.3]heptan-2-yl]methanone] | 11.9 nM |
| O=C(N1CC(c2ccc(C3(C(F)(F)F)CC3)cc2)C1)N1CC2(CC(n3cnc(C4CC4)n3)C2)C1 [Example 1, (6-(3-cyclopropyl-1H-1,2,4-triazol-1-yl)-2-azaspiro[3.3]heptan-2-yl)(3-(4-(1-(trifluoromethyl)cyclopropyl)phenyl)azetidin-1-yl)methanone] | 0.1 nM |
| CNC(=O)C(c1ccc(F)cc1)N1CCN(C(=O)N2CC3(CC(n4cnc(C5CC5)n4)C3)C2)CC1 (stereo not shown) [Example 340, 2-[4-[6-(3-cyclopropyl-1,2,4-triazol-1-yl)-2-azaspiro[3.3]heptane-2-carbonyl]piperazin-1-yl]-2-(4-fluorophenyl)-N-methyl-acetamide] | 3190 nM |
| CC(C)(C)c1nnc(-c2ccc(C(=O)N3CC4(CC(n5cnc(Cl)n5)C4)C3)cc2)o1 [Example 168, [4-(5-tert-butyl-1,3,4-oxadiazol-2-yl)phenyl]-[6-(3-chloro-1,2,4-triazol-1-yl)-2-azaspiro[3.3]heptan-2-yl]methanone] | 1490 nM |
| O=C(N1CC2(CC(n3cnc(C(F)(F)F)n3)C2)C1)N1CC2(CN(Cc3ccc(S(=O)(=O)C(F)(F)F)cc3)C2)C1 [Example 353, [6-[[4-(trifluoromethylsulfonyl)phenyl]methyl]-2,6-diazaspiro[3.3]heptan-2-yl]-[6-[3-(trifluoromethyl)-1,2,4-triazol-1-yl]-2-azaspiro[3.3]heptan-2-yl]methanone] | 2.4 nM |
| O=C(N1CC(OCc2ccc(S(=O)(=O)C(F)(F)F)cc2)C1)N1CC2(CC(n3cnc(C4(O)CC4)n3)C2)C1 [Example 399, [6-[3-(1-hydroxycyclopropyl)-1,2,4-triazol-1-yl]-2-azaspiro[3.3]heptan-2-yl]-[3-[[4-(trifluoromethylsulfonyl)phenyl]methoxy]azetidin-1-yl]methanone] | 102 nM |
| O=C(c1cnc(OCC2(C(F)(F)F)CC2)c(C(F)(F)F)c1)N1CC2(CC(n3cnc(C4CC4)n3)C2)C1 [Example 153, [6-(3-cyclopropyl-1,2,4-triazol-1-yl)-2-azaspiro[3.3]heptan-2-yl]−[5-(trifluoromethyl)-6-[[1-(trifluoromethyl)cyclopropyl]methoxy]-3-pyridyl]methanone] | 14.9 nM |
| CCc1ncn(C2CC3(C2)CN(C(=O)N2CC4(CC(Cc5ccc(F)cc5F)C4)C2)C3)n1 [Example 186, [6-[(2,4-difluorophenyl)methyl]-2-azaspiro[3.3]heptan-2-yl]-[6-(3-ethyl-1,2,4-triazol-1-yl)-2-azaspiro[3.3]heptan-2-yl]methanone] | 0.1 nM |
| O=C(N1CC2(CC(n3cnc(C4CC4)n3)C2)C1)N1CC2(CN(Cc3ccc(C(F)(F)F)cc3F)C2)C1 [Example 189, [6-(3-cyclopropyl-1,2,4-triazol-1-yl)-2-azaspiro[3.3]heptan-2-yl]-[6-[[2-fluoro-4-(trifluoromethyl)phenyl]methyl]-2,6-diazaspiro[3.3]heptan-2-yl]methanone] | 0.2 nM |
| COc1cc(C(F)(F)F)ccc1CNC1CN(C(=O)N2CC3(CC(n4cnc(C5(O)CC5)n4)C3)C2)C1 [Example 393, [6-[3-(1-hydroxycyclopropyl)-1,2,4-triazol-1-yl]-2-azaspiro[3.3]heptan-2-yl]-[3-[[2-methoxy-4-(trifluoromethyl)phenyl]methylamino]azetidin-1-yl]methanone] | 401 nM |
| CS(=O)(=O)c1cc(Cl)ccc1-c1ccc(C2CN(C(=O)N3CC4(CC(n5cnc(C6(O)CC6)n5)C4)C3)C2)cc1 [Example 396, [3-[4-(4-chloro-2-methylsulfonyl-phenyl)phenyl]azetidin-1-yl]-[6-[3-(1-hydroxycyclopropyl)-1,2,4-triazol-1-yl]-2-azaspiro[3.3]heptan-2-yl]methanone] | 0.26 nM |
| COc1ccc(S(=O)(=O)N2CC3(CN(C(=O)N4CC5(CC(n6cnc(C7CC7)n6)C5)C4)C3)C2)cc1 [Example 282, [6-(3-cyclopropyl-1,2,4-triazol-1-yl)-2-azaspiro[3.3]heptan-2-yl]-[2-(4-methoxyphenyl)sulfonyl-2,6-diazaspiro[3.3]heptan-6-yl]methanone] | 44.6 nM |
| Cc1cccc(F)c1CCC1CN(C(=O)N2CC3(CC(n4cnc(C5CC5)n4)C3)C2)C1 [Example 508, [6-(3-cyclopropyl-1,2,4-triazol-1-yl)-2-azaspiro[3.3]heptan-2-yl]-[3-[2-(2-fluoro-6-methyl-phenyl)ethyl]azetidin-1-yl]methanone] | 651 nM |
| O=C(N1CC(c2noc(C3(C(F)(F)F)CC3)n2)C1)N1CC2(CC(n3cnc(C4CC4)c3)C2)C1 [Example 141] | 332 nM |
| Cc1cc(C(=O)N2CC3(CC(n4ccc(C5CC5)n4)C3)C2)cnc1OC(C)(C)C(F)(F)F [Example 152, [6-(3-cyclopropylpyrazol-1-yl)-2-azaspiro[3.3]heptan-2-yl]-[5-methyl-6-(2,2,2-trifluoro-1,1-dimethyl-ethoxy)-3-pyridyl]methanone] | 312 nM |
| O=C(N1CC(c2ccc(OC(F)(F)F)cc2)C1)N1CC2(CC(n3cnc(C4CC4)n3)C2)C1 [Example 33, [6-(3-cyclopropyl-1,2,4-triazol-1-yl)-2-azaspiro[3.3]heptan-2-yl]−[3-[4-(trifluoromethoxy)phenyl]azetidin-1-yl]methanone] | 0.4 nM |
| O=C(N1CCC(Oc2cccc(F)c2)CC1)N1CC2(CC(n3cnc(C4CC4)n3)C2)C1 [Example 506, [6-(3-cyclopropyl-1,2,4-triazol-1-yl)-2-azaspiro[3.3]heptan-2-yl]-[4-(3-fluorophenoxy)-1-piperidyl]methanone] | 75.6 nM |
| O=C(N1CC2(CC(n3cnc(C4CC4)n3)C2)C1)N1CC2(C1)CN(S(=O)(=O)c1cccnc1)C2 [Example 317, [6-(3-cyclopropyl-1,2,4-triazol-1-yl)-2-azaspiro[3.3]heptan-2-yl]-[2-(3-pyridylsulfonyl)-2,6-diazaspiro[3.3]heptan-6-yl]methanone] | 274 nM |
